Experimental data taken from PubChem BioAssay AID2060513 (Molecular Pharmacology Branch, DTP, NCI, 2025).
“And” between values parts separate entries of the source, which are not always exact repeats. Equal values may be shown once.

Tested on: 299254-011-R-J1-PDC complex spheroids viability
Assay: Anticancer human tumor 299254-011-R-J1-PDC patient-derived melanoma cell line growth inhibition [GQUAD]
Settings: for viability, T/C: stronger effect = lower value
Text: DNA G-quadruplex Stabilizer Agents in Combinations in Complex Spheroids
A high-throughput screen of multi-cell type tumor spheroids was designed to identify active combinations of DNA G-quadruplex stabilizer agents and targeted small molecules. Complex spheroids include a stromal component modeled by human endothelial cells (HUVEC) and fibroblasts modeled by human mesenchymal stem cells (MSCs). The concentration ranges selected for each drug and investigational agent were based upon clinically achievable concentrations if the clinical Cmax of the agent was known.
Compounds. The drugs and investigational agents: pidnarulex (CX-5461; NSC782164), APTO-253 (NSC789042), BRACO-19 (NSC847499), peposertib (NSC802822), ceralasertib (NSC780249), elimusertib (NSC800525), camonsertib (NSC841442), AZD-1390 (NSC803789), olaparib (NSC753686), talazoparib (NSC767125), ART-558 (NSC835418), sotorasib (NSC818433), MRTX-1133 (NSC836407), SN-38 (NSC673596), topotecan (NSC609699), etoposide (NSC141540), doxorubicin (NSC123127), gemcitabine (NSC613327), 5-fluorouracil (NSC19893), paclitaxel (NSC125973), vemurafenib (NSC761431), panobinostat (NSC761190), R-306465 (JNJ-16241199; NSC773264), adavosertib (NSC754352), TP-3654 (NSC805149), carboplatin (NSC241240), KSQ-4279 (NSC840948), and staurosporine (NSC755774) were obtained from the National Cancer Institute (NCI) Developmental Therapeutics Program Chemical Repository (34). The FDA-approved anticancer drug set is available from the NCI Developmental Therapeutics Program. […] The stock solutions were prepared in dimethyl sulfoxide (DMSO, Sigma-Aldrich, St. Louis, MO, cat. D2650) at 800-fold the tested concentration and stored at -70 degrees C prior to their use. All drugs and investigational agents were tested over a range starting from a high concentration at or near the clinical Cmax and decreasing in half-log increments. If the clinical Cmax for an agent had not been determined, the highest concentration tested was 10 microM.
2.3 Cell Culture. All cells were maintained in an incubator at 37 degrees C and 5% CO2 with 95% humidity. The PDC lines were cultured according to standard operating procedures established by the NCI PDMR. All PDCs were thawed and cultured in Matrigel-coated flasks prepared with a working solution of 1X Ham's F-12 nutrient mix, without supplementation (Invitrogen, cat. 11765054), 100 U/mL penicillin-streptomycin (Invitrogen, cat. 15140122), and 2.5% Matrigel (Corning Inc., cat. 354248) for the first three passages. The 857933-349-R-J2-PDC line was cultured in 6C/Colon 1B media, which includes advanced DMEM/F-12 (Thermo Fisher Scientific, cat. 12634028), 10 mM HEPES (Thermo Fisher Scientific, cat. 15630080), 1X GlutaMAX supplement (Thermo Fisher Scientific, cat. 35050061), 0.1 mg/mL primocin (InvivoGen, cat. ant-pm-2), 10% defined fetal bovine serum, heat inactivated (HyClone Laboratories Inc., cat. SH30070.03HI), 50% L-WRN conditioned media (ATCC, cat. CRL-3276), 1.25 mM N-Acetyl-L-cysteine (Sigma-Aldrich, cat. A9165), 10 mM nicotinamide (Sigma-Aldrich, cat. N0636), 1X B-27 supplement (Thermo Fisher Scientific, cat. 17504044), 1X N-2 supplement (Thermo Fisher Scientific, cat. 17502048), 10 microM Y-27632 dihydrochloride (Tocris Bioscience, cat. 1254), and 50 ng/mL human EGF recombinant protein (Thermo Fisher Scientific, cat. PHG0311). The 485176-168-R4-J1-PDC line was cultured in Panc media, which includes all 6C/Colon 1B media components plus 100 ng/mL human FGF-10 (Thermo Fisher Scientific, cat. 100-26), 500 nM SB-431542 (Selleckchem, cat. S1067), and gastrin (Tocris, cat. 3006).
[…]
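Also: spheroids exposed to the agents for seven days before readout.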
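For viability, T/C in this document: percent viability relative to DMSO vehicle control wells = 100%.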

## COc1cccc2c1C(=O)c1c(O)c3c(c(O)c1C2=O)CC(O)(C(=O)CO)CC3OC1CC(N)C(O)C(C)O1 (centres undefined) + Cc1cnc(CNC(=O)c2c(=O)c3ccc(N4CCCN(C)CC4)nc3n3c2sc2ccccc23)cn1
Curve of first compound, second compound 0.0316 µM
  IC50: 4260 nM
Curve of first compound, second compound 0.1 µM
  IC50: 4920 nM
Curve of first compound, second compound 0.316 µM
  IC50: 3640 nM
Curve of first compound, second compound 1 µM
  IC50: 3990 nM
Curve of first compound, second compound 3.16 µM
  IC50: 2380 nM
Curve of first compound, second compound 10 µM
  IC50: 31.6 nM
Second compound 0.0316 µM, first compound 0.0316 µM
  viability, T/C: 104%
Second compound 0.0316 µM, first compound 0.1 µM
  viability, T/C: 106%
Second compound 0.0316 µM, first compound 0.316 µM
  viability, T/C: 87%
Second compound 0.0316 µM, first compound 1 µM
  viability, T/C: 88.3%
Second compound 0.0316 µM, first compound 3.16 µM
  viability, T/C: 61.3%
Second compound 0.0316 µM, first compound 10 µM
  viability, T/C: 16.9%
Second compound 0.1 µM, first compound 0.0316 µM
  viability, T/C: 110%
Second compound 0.1 µM, first compound 0.1 µM
  viability, T/C: 104%
Second compound 0.1 µM, first compound 0.316 µM
  viability, T/C: 95.2%
Second compound 0.1 µM, first compound 1 µM
  viability, T/C: 88.2%
Second compound 0.1 µM, first compound 3.16 µM
  viability, T/C: 70.5%
Second compound 0.1 µM, first compound 10 µM
  viability, T/C: 20.9%
Second compound 0.316 µM, first compound 0.0316 µM
  viability, T/C: 83.3%
Second compound 0.316 µM, first compound 0.1 µM
  viability, T/C: 95%
Second compound 0.316 µM, first compound 0.316 µM
  viability, T/C: 75.9%
Second compound 0.316 µM, first compound 1 µM
  viability, T/C: 78.9%
Second compound 0.316 µM, first compound 3.16 µM
  viability, T/C: 54.9%
Second compound 0.316 µM, first compound 10 µM
  viability, T/C: 11.1%
Second compound 1 µM, first compound 0.0316 µM
  viability, T/C: 81.2%
Second compound 1 µM, first compound 0.1 µM
  viability, T/C: 76.3%
Second compound 1 µM, first compound 0.316 µM
  viability, T/C: 86.7%
Second compound 1 µM, first compound 1 µM
  viability, T/C: 76.4%
Second compound 1 µM, first compound 3.16 µM
  viability, T/C: 63%
Second compound 1 µM, first compound 10 µM
  viability, T/C: 0.21%
Second compound 3.16 µM, first compound 0.0316 µM
  viability, T/C: 84.8%
Second compound 3.16 µM, first compound 0.1 µM
  viability, T/C: 87.7%
Second compound 3.16 µM, first compound 0.316 µM
  viability, T/C: 66.2%
Second compound 3.16 µM, first compound 1 µM
  viability, T/C: 78.2%
Second compound 3.16 µM, first compound 3.16 µM
  viability, T/C: 41.1%
Second compound 3.16 µM, first compound 10 µM
  viability, T/C: 0.21%
Second compound 10 µM, first compound 0.0316 µM
  viability, T/C: 38.2%
Second compound 10 µM, first compound 0.1 µM
  viability, T/C: 19.6%
Second compound 10 µM, first compound 0.316 µM
  viability, T/C: 53.9%
Second compound 10 µM, first compound 1 µM
  viability, T/C: 63.3%
Second compound 10 µM, first compound 3.16 µM
  viability, T/C: 0.39%
Second compound 10 µM, first compound 10 µM
  viability, T/C: 0.28%

## CC1COCCN1c1cc(-c2ccnn2C)c2ccnc(-c3ccn[nH]3)c2n1 (centres undefined)
Compound 0.0316 µM
  viability, T/C: 91.4% and 103% and 81.2%
Compound 0.1 µM
  viability, T/C: 51.7% and 66.5% and 56.5%
Compound 0.316 µM
  viability, T/C: 36.6% and 36.5% and 32.7%
Compound 1 µM
  viability, T/C: 17.9% and 19.7% and 18.7%
Compound 3.16 µM
  viability, T/C: 22.7% and 13.6% and 13.7%
Compound 10 µM
  viability, T/C: 11.9% and 15.1% and 13.6%
Curve of compound
  IC50: 122 nM and 186 nM and 137 nM
